From patent publication US8076487B2, “Pyridone derivative and herbicide” (Kumiai Chemical Industry Co., Ltd., priority 2006, dated 2011) come the findings set out here.

The structures appear in SMILES notation.

What all share (type): in vivo
The subject of experiment [1] is green foxtail (Setaria viridis (L.) P. Beauv.). Kind of experiment: Test Example 2: herbicidal effect by soil application to upland field. The following applies: soil surface spray, upland field soil, 1,000 g active ingredient per hectare, 21st day after application. The protocol:
(§1) [table] Test Example 2 Test on Herbicidal Effect by Soil Application to Upland field In a 80 cm2 plastic pot, field soil was filled. Seeds of barnyardgrass (Echinochloa crus-galli (L.) P. Beauv. var. crus-galli), green foxtail (Setaria viridis (L.) P. Beauv.), velvetleaf (Abutilon theophrasti medicus), and slender amaranth (Amaranthus viridis L.) were sown and covered with soils. The wettable powder prepared according to Formulation Example 1 was diluted in water and a 1,000 liter equivalent amount per 1 hectare so that the active ingredient becomes 1,000 g per 1 hectare was uniformly sprayed on a soil surface using a small sprayer. Then, on the 21st day after the application to the plants grew in a greenhouse, the herbicidal effect was examined in accordance with a standard shown in Table 34.

Experiment [2] deals with slender amaranth (Amaranthus viridis L.). The description is as above. The following applies: soil surface spray, upland field soil, 1,000 g active ingredient per hectare, 21st day after application. Here is the method: as §1
The subject of experiment [3] is velvetleaf (Abutilon theophrasti medicus). Described as above. The following applies: soil surface spray, upland field soil, 1,000 g active ingredient per hectare, 21st day after application. The protocol:
as §1

Experiment [4] has as its system barnyardgrass (Echinochloa crus-galli (L.) P. Beauv. var. crus-galli). Described as above. The following applies: soil surface spray, upland field soil, 1,000 g active ingredient per hectare, 21st day after application. Here is the method: as §1
For experiment [5], the system named is heartshape false pickerelweed (Monochoria vaginalis (Burm.f.) C.Presl). Kind of experiment: Test Example 1: herbicidal effect by soil application to paddy field. The following applies: paddy field soil application; active ingredient 1,000 g per 1 hectare; wettable powder added dropwise to water surface the day after sowing; examined on the 21st day after application. In outline: (§2)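 Under greenhouse conditions, seeds sown on puddled paddy soil in 100 cm2 pots under 3 cm of standing water received the test compound; injury was assessed with a standard scoring scheme three weeks (day 21) after treatment.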

For experiment [6], the system named is Japanese bulrush (Scirpus juncoides Roxb.). The experiment is described as above. The following applies: paddy field soil application; active ingredient 1,000 g per 1 hectare; wettable powder added dropwise to water surface the day after sowing; examined on the 21st day after application. The method in brief: as §2
For experiment [7], the system named is early watergrass (Echinochloa oryzicola Vasing). Described as above. The following applies: paddy field soil application; active ingredient 1,000 g per 1 hectare; wettable powder added dropwise to water surface the day after sowing; examined on the 21st day after application. In outline:
as §2

Consider `CCCS(=O)(=O)Oc1c(C(=O)c2ccc(C(F)(F)F)n(CCS(C)(=O)=O)c2=O)cnn1C` [IV-55], for which the “herbicidal effect (index), Green Foxtail” value in experiment [1] is 5 (90% or more of herbicidal effect and crop phytotoxicity). In experiment [2], the “herbicidal effect (index), Slender Amaranth” value was 5 (90% or more of herbicidal effect and crop phytotoxicity). Moreover, in experiment [3], the “herbicidal effect (index), Velvetleaf” value was 4 (70 to less than 90% of herbicidal effect and crop phytotoxicity). Also, in experiment [4], the “herbicidal effect (index), Barnyardgrass” value is 5 (90% or more of herbicidal effect and crop phytotoxicity). In experiment [5], the “herbicidal effect, Monochoria vaginalis (Burm. f.) C. Presl” value (“herbicidal effect, Monochoria vaginalis” for short) is 5 (90% or more of herbicidal effect and crop phytotoxicity). The “herbicidal effect, Scirpus juncoides Roxb.” value in experiment [6] was 4 (70 to less than 90% of herbicidal effect and crop phytotoxicity). The “herbicidal effect, Echinochloa oryzicola Vasing” value in experiment [7] was 4 (70 to less than 90% of herbicidal effect and crop phytotoxicity).

For the compound `CCCS(=O)(=O)Oc1c(C(=O)c2ccc(C(F)(F)F)n(-c3ccc([N+](=O)[O-])cc3)c2=O)cnn1C` [IV-68], the “herbicidal effect (index), Green Foxtail” value in experiment [1] was 4 (70 to less than 90% of herbicidal effect and crop phytotoxicity). In addition, the “herbicidal effect (index), Slender Amaranth” value in experiment [2] is 5 (90% or more of herbicidal effect and crop phytotoxicity). In addition, in experiment [3], the “herbicidal effect (index), Velvetleaf” value is 5 (90% or more of herbicidal effect and crop phytotoxicity). For the same compound, the “herbicidal effect (index), Barnyardgrass” value in experiment [4] is 4 (70 to less than 90% of herbicidal effect and crop phytotoxicity). The “herbicidal effect, Monochoria vaginalis” value in experiment [5] is 5 (90% or more of herbicidal effect and crop phytotoxicity). The “herbicidal effect, Scirpus juncoides Roxb.” value in experiment [6] is 4 (70 to less than 90% of herbicidal effect and crop phytotoxicity). In experiment [7], the “herbicidal effect, Echinochloa oryzicola Vasing” value is 4 (70 to less than 90% of herbicidal effect and crop phytotoxicity).

On to `CCCS(=O)(=O)Oc1c(C(=O)c2ccc(C(F)(F)F)n(-c3cc(F)cc(F)c3)c2=O)c(C)nn1C` [IV-82], for which the “herbicidal effect (index), Green Foxtail” value in experiment [1] was 4 (70 to less than 90% of herbicidal effect and crop phytotoxicity). Moreover, in experiment [2], the “herbicidal effect (index), Slender Amaranth” value was 4 (70 to less than 90% of herbicidal effect and crop phytotoxicity). The “herbicidal effect (index), Velvetleaf” value in experiment [3] is 5 (90% or more of herbicidal effect and crop phytotoxicity). The “herbicidal effect (index), Barnyardgrass” value in experiment [4] was 5 (90% or more of herbicidal effect and crop phytotoxicity). Further, the “herbicidal effect, Monochoria vaginalis” value in experiment [5] was 5 (90% or more of herbicidal effect and crop phytotoxicity). Also, the “herbicidal effect, Scirpus juncoides Roxb.” value in experiment [6] is 3 (50 to less than 70% of herbicidal effect and crop phytotoxicity). For the same compound, the “herbicidal effect, Echinochloa oryzicola Vasing” value in experiment [7] was 5 (90% or more of herbicidal effect and crop phytotoxicity).

Consider `CCCS(=O)(=O)Oc1c(C(=O)c2ccc(C(F)(F)F)n(-c3ccc(F)c(F)c3)c2=O)cnn1C` [IV-87], for which the “herbicidal effect (index), Green Foxtail” value in experiment [1] is 5 (90% or more of herbicidal effect and crop phytotoxicity). Besides, the “herbicidal effect (index), Slender Amaranth” value in experiment [2] was 5 (90% or more of herbicidal effect and crop phytotoxicity). The “herbicidal effect (index), Velvetleaf” value in experiment [3] was 5 (90% or more of herbicidal effect and crop phytotoxicity). In addition, in experiment [4], the “herbicidal effect (index), Barnyardgrass” value is 5 (90% or more of herbicidal effect and crop phytotoxicity). For the same compound, the “herbicidal effect, Monochoria vaginalis” value in experiment [5] was 5 (90% or more of herbicidal effect and crop phytotoxicity). Further, the “herbicidal effect, Scirpus juncoides Roxb.” value in experiment [6] is 5 (90% or more of herbicidal effect and crop phytotoxicity). Further, the “herbicidal effect, Echinochloa oryzicola Vasing” value in experiment [7] is 5 (90% or more of herbicidal effect and crop phytotoxicity).

As for `CCCS(=O)(=O)Oc1c(C(=O)c2ccc(C(F)(F)F)n(-c3ccc(F)c(F)c3)c2=O)c(C)nn1C` [IV-88], the “herbicidal effect (index), Green Foxtail” value in experiment [1] was 5 (90% or more of herbicidal effect and crop phytotoxicity). For the same compound, the “herbicidal effect (index), Slender Amaranth” value in experiment [2] is 5 (90% or more of herbicidal effect and crop phytotoxicity). In experiment [3], the “herbicidal effect (index), Velvetleaf” value is 5 (90% or more of herbicidal effect and crop phytotoxicity). In addition, in experiment [4], the “herbicidal effect (index), Barnyardgrass” value was 5 (90% or more of herbicidal effect and crop phytotoxicity). Moreover, the “herbicidal effect, Monochoria vaginalis” value in experiment [5] is 5 (90% or more of herbicidal effect and crop phytotoxicity). For the same compound, the “herbicidal effect, Scirpus juncoides Roxb.” value in experiment [6] was 4 (70 to less than 90% of herbicidal effect and crop phytotoxicity). In experiment [7], the “herbicidal effect, Echinochloa oryzicola Vasing” value is 5 (90% or more of herbicidal effect and crop phytotoxicity).

On to `CC(=O)Oc1c(C(=O)c2ccc(C(F)(F)F)n(-c3cc([N+](=O)[O-])ccc3F)c2=O)cnn1C` [IV-89], for which the “herbicidal effect (index), Green Foxtail” value in experiment [1] is 4 (70 to less than 90% of herbicidal effect and crop phytotoxicity). Moreover, in experiment [2], the “herbicidal effect (index), Slender Amaranth” value is 4 (70 to less than 90% of herbicidal effect and crop phytotoxicity). Further, the “herbicidal effect (index), Velvetleaf” value in experiment [3] was 5 (90% or more of herbicidal effect and crop phytotoxicity). Further, the “herbicidal effect (index), Barnyardgrass” value in experiment [4] was 5 (90% or more of herbicidal effect and crop phytotoxicity). In experiment [5], the “herbicidal effect, Monochoria vaginalis” value was 5 (90% or more of herbicidal effect and crop phytotoxicity). Also, in experiment [6], the “herbicidal effect, Scirpus juncoides Roxb.” value was 4 (70 to less than 90% of herbicidal effect and crop phytotoxicity). Further, in experiment [7], the “herbicidal effect, Echinochloa oryzicola Vasing” value was 4 (70 to less than 90% of herbicidal effect and crop phytotoxicity).

Regarding `CCCS(=O)(=O)Oc1c(C(=O)c2ccc(C(F)(F)F)n(-c3ccc(F)c(COC)c3)c2=O)cnn1C` [IV-94], in experiment [1], the “herbicidal effect (index), Green Foxtail” value is 4 (70 to less than 90% of herbicidal effect and crop phytotoxicity). In addition, the “herbicidal effect (index), Slender Amaranth” value in experiment [2] was 5 (90% or more of herbicidal effect and crop phytotoxicity). In addition, in experiment [3], the “herbicidal effect (index), Velvetleaf” value was 5 (90% or more of herbicidal effect and crop phytotoxicity). Besides, the “herbicidal effect (index), Barnyardgrass” value in experiment [4] was 5 (90% or more of herbicidal effect and crop phytotoxicity). The “herbicidal effect, Monochoria vaginalis” value in experiment [5] is 5 (90% or more of herbicidal effect and crop phytotoxicity). For the same compound, the “herbicidal effect, Scirpus juncoides Roxb.” value in experiment [6] is 5 (90% or more of herbicidal effect and crop phytotoxicity). The “herbicidal effect, Echinochloa oryzicola Vasing” value in experiment [7] was 5 (90% or more of herbicidal effect and crop phytotoxicity).

`Cn1ncc(C(=O)c2ccc(C(F)(F)F)n(CC3CCCO3)c2=O)c1OC(=O)c1ccccc1` (stereo not shown) [IV-131]: the “herbicidal effect (index), Green Foxtail” value in experiment [1] was 3 (50 to less than 70% of herbicidal effect and crop phytotoxicity). For the same compound, the “herbicidal effect (index), Slender Amaranth” value in experiment [2] is 5 (90% or more of herbicidal effect and crop phytotoxicity). Also, in experiment [3], the “herbicidal effect (index), Velvetleaf” value is 4 (70 to less than 90% of herbicidal effect and crop phytotoxicity). For the same compound, the “herbicidal effect (index), Barnyardgrass” value in experiment [4] was 4 (70 to less than 90% of herbicidal effect and crop phytotoxicity). For the same compound, in experiment [5], the “herbicidal effect, Monochoria vaginalis” value was 5 (90% or more of herbicidal effect and crop phytotoxicity). For the same compound, in experiment [6], the “herbicidal effect, Scirpus juncoides Roxb.” value was 5 (90% or more of herbicidal effect and crop phytotoxicity). In experiment [7], the “herbicidal effect, Echinochloa oryzicola Vasing” value was 5 (90% or more of herbicidal effect and crop phytotoxicity).

For `Cn1ncc(C(=O)c2ccc(C(F)(F)F)n(CC3CCCO3)c2=O)c1OC(=O)c1c(Cl)cc(Cl)cc1Cl` (stereo not shown) [IV-133], the “herbicidal effect (index), Green Foxtail” value in experiment [1] was 3 (50 to less than 70% of herbicidal effect and crop phytotoxicity). In experiment [2], the “herbicidal effect (index), Slender Amaranth” value is 5 (90% or more of herbicidal effect and crop phytotoxicity). Also, the “herbicidal effect (index), Velvetleaf” value in experiment [3] is 4 (70 to less than 90% of herbicidal effect and crop phytotoxicity). In experiment [4], the “herbicidal effect (index), Barnyardgrass” value was 5 (90% or more of herbicidal effect and crop phytotoxicity). Further, in experiment [5], the “herbicidal effect, Monochoria vaginalis” value was 5 (90% or more of herbicidal effect and crop phytotoxicity). Further, the “herbicidal effect, Scirpus juncoides Roxb.” value in experiment [6] was 5 (90% or more of herbicidal effect and crop phytotoxicity). In addition, the “herbicidal effect, Echinochloa oryzicola Vasing” value in experiment [7] is 5 (90% or more of herbicidal effect and crop phytotoxicity).

With `C#CCOc1c(C(=O)c2ccc(C(F)(F)F)n(C)c2=O)cnn1C` [IV-189], the “herbicidal effect (index), Green Foxtail” value in experiment [1] is 4 (70 to less than 90% of herbicidal effect and crop phytotoxicity). In addition, the “herbicidal effect (index), Slender Amaranth” value in experiment [2] is 5 (90% or more of herbicidal effect and crop phytotoxicity). The “herbicidal effect (index), Velvetleaf” value in experiment [3] was 4 (70 to less than 90% of herbicidal effect and crop phytotoxicity). Besides, in experiment [4], the “herbicidal effect (index), Barnyardgrass” value is 5 (90% or more of herbicidal effect and crop phytotoxicity). In addition, the “herbicidal effect, Monochoria vaginalis” value in experiment [5] was 5 (90% or more of herbicidal effect and crop phytotoxicity). Also, the “herbicidal effect, Scirpus juncoides Roxb.” value in experiment [6] was 5 (90% or more of herbicidal effect and crop phytotoxicity). Also, the “herbicidal effect, Echinochloa oryzicola Vasing” value in experiment [7] was 5 (90% or more of herbicidal effect and crop phytotoxicity).
